Data reported in ChEMBL document CHEMBL1124380, “Synthesis and cytostatic activity of geiparvarin analogues” (1989).
In brackets after ≈: the same amount, converted by molar mass.

Tests used:
Format in all cases: functional
[1] = Ability to inhibit human Molt/4F tumor cell proliferation by 50%; conditions: read-out: ID50 (the source's name)
H9 = assay: Ability to inhibit human H9 tumor cell proliferation by 50%; conditions: read-out: ID50 (the source's name)
CCRF-CEM = assay: Ability to inhibit human CEM tumor cell proliferation by 50%; conditions: read-out: ID50 (the source's name)
FM3A = assay: Ability to inhibit murine FM3A tumor cell proliferation by 50%; conditions: Mus musculus, read-out: ID50 (the source's name)
MT4 = assay: Ability to inhibit human MT-4 tumor cell proliferation by 50%; conditions: read-out: ID50 (the source's name)
Raji = assay: Ability to inhibit human Raji tumor cell proliferation by 50%; conditions: read-out: ID50 (the source's name)
L1210 = assay: Ability to inhibit murine L1210 tumor cell proliferation by 50%; conditions: Mus musculus, read-out: ID50 (the source's name)

SMILES | IC50 [1] | IC50 (H9) | IC50 (CCRF-CEM) | IC50 (FM3A) | IC50 (MT4) | IC50 (Raji) | IC50 (L1210)
C/C(=C\COc1ccc2ccc(=O)oc2c1)C1=CC(=O)C2(CCCCC2)O1 | 12.7 µg/mL (≈ 34.7 µM) | 2.08 µg/mL (≈ 5.68 µM) | 2.72 µg/mL (≈ 7.42 µM) | 6.61 µg/mL (≈ 18 µM) | 2.1 µg/mL (≈ 5.73 µM) | 5.43 µg/mL (≈ 14.8 µM) | 1.82 µg/mL (≈ 4.97 µM)
CC(C)CC1=CC(=N)C(C)(C)O1.O=C(O)C(=O)O | > 100 µg/mL | > 100 µg/mL | > 100 µg/mL | 33.2 µg/mL | > 100 µg/mL | > 100 µg/mL | > 100 µg/mL
C/C(=C\COc1ccc2ccc(=O)oc2c1)C1=CC(=N)C(C)(C)O1 | 25.8 µg/mL (≈ 79.3 µM) | 21.7 µg/mL (≈ 66.7 µM) | 18.8 µg/mL (≈ 57.8 µM) | 20.7 µg/mL (≈ 63.6 µM) | 8.77 µg/mL (≈ 27 µM) | 26 µg/mL (≈ 79.9 µM) | 18.4 µg/mL (≈ 56.6 µM)
CCC1OC(/C(C)=C/COc2ccc3ccc(=O)oc3c2)=CC1=O (centres undefined) | 2.84 µg/mL (≈ 8.7 µM) | 4.1 µg/mL (≈ 12.6 µM) | 3.27 µg/mL (≈ 10 µM) | 17.2 µg/mL (≈ 52.7 µM) | 1.63 µg/mL (≈ 4.99 µM) | 2.43 µg/mL (≈ 7.45 µM) | 9.77 µg/mL (≈ 29.9 µM)
CCC1(C)OC(/C(C)=C/COc2ccc3ccc(=O)oc3c2)=CC1=O (centres undefined) | 3.02 µg/mL (≈ 8.87 µM) | 2.15 µg/mL (≈ 6.32 µM) | 2.49 µg/mL (≈ 7.32 µM) | 2.96 µg/mL (≈ 8.7 µM) | 0.53 µg/mL (≈ 1.56 µM) | 2.59 µg/mL (≈ 7.61 µM) | 2.05 µg/mL (≈ 6.02 µM)
O=C1C=C(c2ccccc2)OC1 | 31.2 µg/mL (≈ 195 µM) | 38.6 µg/mL (≈ 241 µM) | 30.2 µg/mL (≈ 189 µM) | 31.4 µg/mL (≈ 196 µM) | 31.7 µg/mL (≈ 198 µM) | 50.1 µg/mL (≈ 313 µM) | 45.8 µg/mL (≈ 286 µM)
C/C(=C\COc1ccc2ccc(=O)oc2c1)C1=CC(=N)C2(CCCCC2)O1 | 20.5 µg/mL (≈ 56.1 µM) | 14.2 µg/mL (≈ 38.9 µM) | 4.95 µg/mL (≈ 13.5 µM) | 15.8 µg/mL (≈ 43.2 µM) | 4.93 µg/mL (≈ 13.5 µM) | 23.5 µg/mL (≈ 64.3 µM) | 4.05 µg/mL (≈ 11.1 µM)
CC(C)CC1=CC(=N)C(C)(C)O1 | > 100 µg/mL | > 100 µg/mL | > 100 µg/mL | 33 µg/mL (≈ 197 µM) | > 100 µg/mL | > 100 µg/mL | > 100 µg/mL
C/C(=C\CO)CC1=CC(=O)C(C)(C)O1 | 15.2 µg/mL (≈ 77.5 µM) | 9.13 µg/mL (≈ 46.5 µM) | 10.3 µg/mL (≈ 52.5 µM) | 23.3 µg/mL (≈ 119 µM) | 3.05 µg/mL (≈ 15.5 µM) | 16.6 µg/mL (≈ 84.6 µM) | 15.8 µg/mL (≈ 80.5 µM)
CC1(C)OC(c2ccccc2)=CC1=N | > 100 µg/mL | > 100 µg/mL | > 100 µg/mL | 24.7 µg/mL (≈ 132 µM) | 76.2 µg/mL (≈ 407 µM) | > 100 µg/mL | 66.4 µg/mL (≈ 355 µM)
CCC1(C)OC(/C(C)=C/COc2ccc3ccc(=O)oc3c2)=CC1=N (centres undefined) | 3.17 µg/mL (≈ 9.34 µM) | 2.58 µg/mL (≈ 7.6 µM) | 3.57 µg/mL (≈ 10.5 µM) | 14.1 µg/mL (≈ 41.5 µM) | 2.65 µg/mL (≈ 7.81 µM) | 17.9 µg/mL (≈ 52.7 µM) | 4.71 µg/mL (≈ 13.9 µM)
CCCCCC1=CC(=N)C(C)(C)O1 | > 100 µg/mL | > 100 µg/mL | > 100 µg/mL | 24.2 µg/mL (≈ 133 µM) | > 100 µg/mL | > 100 µg/mL | 98.3 µg/mL (≈ 542 µM)
COc1ccccc1C1=CC(=O)C(C)(C)O1 | 53.3 µg/mL (≈ 244 µM) | 63.9 µg/mL (≈ 293 µM) | 66.1 µg/mL (≈ 303 µM) | 31.7 µg/mL (≈ 145 µM) | 30.4 µg/mL (≈ 139 µM) | 89.1 µg/mL (≈ 408 µM) | 40.4 µg/mL (≈ 185 µM)
C/C(=C\COc1ccc2ccc(=O)oc2c1)C1=CC(=O)C(C)O1 (centres undefined) | 3.32 µg/mL (≈ 10.6 µM) | 2.91 µg/mL (≈ 9.32 µM) | 3.56 µg/mL (≈ 11.4 µM) | 15.6 µg/mL (≈ 49.9 µM) | 2.56 µg/mL (≈ 8.2 µM) | 10.4 µg/mL (≈ 33.3 µM) | 7.05 µg/mL (≈ 22.6 µM)
COc1ccccc1C1=CC(=O)CO1 | > 100 µg/mL | 66.3 µg/mL (≈ 349 µM) | > 100 µg/mL | > 100 µg/mL | 44.4 µg/mL (≈ 233 µM) | > 100 µg/mL | > 100 µg/mL
CC1=CC(=N)C(c2ccccc2)(c2ccccc2)O1 | 25.3 µg/mL (≈ 101 µM) | 30 µg/mL (≈ 120 µM) | 29.3 µg/mL (≈ 118 µM) | 25.4 µg/mL (≈ 102 µM) | 26.5 µg/mL (≈ 106 µM) | 24 µg/mL (≈ 96.3 µM) | 24.2 µg/mL (≈ 97.1 µM)
C/C(=C\COc1ccc2ccc(=O)oc2c1)C1=CC(=O)C(C)(C)O1 [GEIPARVARIN] | 2.84 µg/mL (≈ 8.7 µM) | 1.97 µg/mL (≈ 6.04 µM) | 2 µg/mL (≈ 6.13 µM) | 3.2 µg/mL (≈ 9.81 µM) | 0.32 µg/mL (≈ 0.981 µM) | 2.19 µg/mL (≈ 6.71 µM) | 2.07 µg/mL (≈ 6.34 µM)
